Consider 3 molecules from ChEMBL document CHEMBL5653615 (J Biol Chem, 2013).

Assay [1] has as its target Cyclin-dependent kinase 4/cyclin D1 (Homo sapiens) (UniProt P11802+P24385). The assay can be described thus: Inhibition of human CDK4/cyclin D1 at 18.6 nM by HotSpot assay relative to control. It is filed as protein-complex assay.
For assay [2], the target named is T1, Discoidin domain-containing receptor 2 (Homo sapiens) (UniProt Q16832).
T1 sequence (whole entry): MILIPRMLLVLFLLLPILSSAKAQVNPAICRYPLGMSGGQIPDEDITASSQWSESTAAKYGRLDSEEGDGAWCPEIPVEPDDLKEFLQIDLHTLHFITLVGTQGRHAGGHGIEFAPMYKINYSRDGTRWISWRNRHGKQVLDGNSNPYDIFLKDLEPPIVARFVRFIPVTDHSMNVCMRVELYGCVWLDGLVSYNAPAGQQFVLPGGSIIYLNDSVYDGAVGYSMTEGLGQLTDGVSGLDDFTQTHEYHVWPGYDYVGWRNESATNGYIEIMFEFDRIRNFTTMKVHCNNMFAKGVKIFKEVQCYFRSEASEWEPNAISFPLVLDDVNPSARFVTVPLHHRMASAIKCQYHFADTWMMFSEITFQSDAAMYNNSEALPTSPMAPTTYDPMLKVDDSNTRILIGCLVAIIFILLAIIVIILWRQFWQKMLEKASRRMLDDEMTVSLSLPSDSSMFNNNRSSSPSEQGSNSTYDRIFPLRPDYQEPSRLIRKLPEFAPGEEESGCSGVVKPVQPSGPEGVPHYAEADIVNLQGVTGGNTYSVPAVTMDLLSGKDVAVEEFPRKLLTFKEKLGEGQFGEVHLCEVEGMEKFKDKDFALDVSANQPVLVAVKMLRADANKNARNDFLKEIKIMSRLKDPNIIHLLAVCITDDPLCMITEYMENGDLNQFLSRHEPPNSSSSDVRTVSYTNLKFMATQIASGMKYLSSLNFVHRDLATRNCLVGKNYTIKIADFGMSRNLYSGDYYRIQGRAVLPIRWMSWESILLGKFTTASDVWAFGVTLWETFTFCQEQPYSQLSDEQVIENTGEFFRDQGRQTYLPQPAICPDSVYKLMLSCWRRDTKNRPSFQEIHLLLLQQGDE
The assay can be described thus: Inhibition of human DDR2 at 18.6 nM by HotSpot assay relative to control.

In assay [3] the target is Ephrin type-A receptor 2 (Homo sapiens) (UniProt P29317). The assay can be described thus: Inhibition of human EPHA2 at 18.6 nM by HotSpot assay relative to control.
Chain of Ephrin type-A receptor 2 (Homo sapiens) (P29317 whole entry): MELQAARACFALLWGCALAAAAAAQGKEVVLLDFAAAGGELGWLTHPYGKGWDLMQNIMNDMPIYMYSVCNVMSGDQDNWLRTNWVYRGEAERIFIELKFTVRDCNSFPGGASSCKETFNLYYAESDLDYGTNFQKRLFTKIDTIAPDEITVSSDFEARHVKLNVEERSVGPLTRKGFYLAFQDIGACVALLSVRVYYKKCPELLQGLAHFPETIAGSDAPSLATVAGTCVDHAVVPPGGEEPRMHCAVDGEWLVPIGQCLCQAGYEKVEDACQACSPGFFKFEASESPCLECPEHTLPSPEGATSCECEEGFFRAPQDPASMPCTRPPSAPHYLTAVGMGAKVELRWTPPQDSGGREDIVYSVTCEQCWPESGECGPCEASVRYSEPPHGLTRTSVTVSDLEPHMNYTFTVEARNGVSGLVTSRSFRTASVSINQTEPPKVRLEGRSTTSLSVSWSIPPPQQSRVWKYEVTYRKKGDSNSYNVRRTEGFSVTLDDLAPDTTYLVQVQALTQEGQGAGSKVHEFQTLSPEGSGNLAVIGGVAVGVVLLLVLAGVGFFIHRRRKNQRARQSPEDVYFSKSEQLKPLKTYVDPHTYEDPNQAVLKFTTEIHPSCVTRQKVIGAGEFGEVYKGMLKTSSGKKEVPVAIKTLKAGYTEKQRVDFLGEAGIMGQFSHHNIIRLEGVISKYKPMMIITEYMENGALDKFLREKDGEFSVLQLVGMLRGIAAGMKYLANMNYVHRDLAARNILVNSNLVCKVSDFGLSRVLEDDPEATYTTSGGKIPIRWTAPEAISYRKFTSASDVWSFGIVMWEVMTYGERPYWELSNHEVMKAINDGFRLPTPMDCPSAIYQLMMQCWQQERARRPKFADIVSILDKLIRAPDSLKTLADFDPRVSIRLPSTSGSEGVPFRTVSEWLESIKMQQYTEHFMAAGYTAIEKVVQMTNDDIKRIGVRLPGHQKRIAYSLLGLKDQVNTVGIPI
Assay [4] deals with Macrophage colony-stimulating factor 1 receptor (Homo sapiens) (UniProt P07333). In words: Inhibition of human FMS at 18.6 nM by HotSpot assay relative to control.
Chain of Macrophage colony-stimulating factor 1 receptor (Homo sapiens) (P07333 whole entry): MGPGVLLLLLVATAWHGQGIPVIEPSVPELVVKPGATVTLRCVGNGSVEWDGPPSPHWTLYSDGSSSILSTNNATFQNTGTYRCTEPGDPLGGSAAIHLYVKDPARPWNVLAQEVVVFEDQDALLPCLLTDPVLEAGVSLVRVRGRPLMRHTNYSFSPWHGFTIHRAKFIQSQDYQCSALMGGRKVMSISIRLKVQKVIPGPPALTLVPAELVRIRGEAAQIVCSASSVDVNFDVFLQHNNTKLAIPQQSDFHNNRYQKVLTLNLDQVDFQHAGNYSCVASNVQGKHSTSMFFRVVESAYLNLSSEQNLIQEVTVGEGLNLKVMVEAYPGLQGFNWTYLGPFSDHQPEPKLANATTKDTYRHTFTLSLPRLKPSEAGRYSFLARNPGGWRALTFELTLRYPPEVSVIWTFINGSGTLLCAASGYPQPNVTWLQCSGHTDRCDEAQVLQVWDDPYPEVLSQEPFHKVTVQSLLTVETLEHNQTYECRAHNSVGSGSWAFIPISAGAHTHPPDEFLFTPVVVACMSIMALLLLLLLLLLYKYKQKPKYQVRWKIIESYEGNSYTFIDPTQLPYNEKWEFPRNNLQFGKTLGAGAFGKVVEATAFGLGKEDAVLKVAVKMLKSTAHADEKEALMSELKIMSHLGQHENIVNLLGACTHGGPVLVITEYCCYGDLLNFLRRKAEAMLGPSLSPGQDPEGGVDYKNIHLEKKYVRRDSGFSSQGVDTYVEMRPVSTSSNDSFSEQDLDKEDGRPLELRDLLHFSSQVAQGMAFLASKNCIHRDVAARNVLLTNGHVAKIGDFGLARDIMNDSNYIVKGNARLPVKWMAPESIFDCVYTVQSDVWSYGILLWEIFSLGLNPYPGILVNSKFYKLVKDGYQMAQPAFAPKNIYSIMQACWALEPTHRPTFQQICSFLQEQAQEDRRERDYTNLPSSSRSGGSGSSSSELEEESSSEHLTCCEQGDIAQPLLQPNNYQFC
The target of assay [5] is T2, Serine/threonine-protein kinase Nek3 (Homo sapiens) (UniProt P51956).
T2 sequence (whole entry): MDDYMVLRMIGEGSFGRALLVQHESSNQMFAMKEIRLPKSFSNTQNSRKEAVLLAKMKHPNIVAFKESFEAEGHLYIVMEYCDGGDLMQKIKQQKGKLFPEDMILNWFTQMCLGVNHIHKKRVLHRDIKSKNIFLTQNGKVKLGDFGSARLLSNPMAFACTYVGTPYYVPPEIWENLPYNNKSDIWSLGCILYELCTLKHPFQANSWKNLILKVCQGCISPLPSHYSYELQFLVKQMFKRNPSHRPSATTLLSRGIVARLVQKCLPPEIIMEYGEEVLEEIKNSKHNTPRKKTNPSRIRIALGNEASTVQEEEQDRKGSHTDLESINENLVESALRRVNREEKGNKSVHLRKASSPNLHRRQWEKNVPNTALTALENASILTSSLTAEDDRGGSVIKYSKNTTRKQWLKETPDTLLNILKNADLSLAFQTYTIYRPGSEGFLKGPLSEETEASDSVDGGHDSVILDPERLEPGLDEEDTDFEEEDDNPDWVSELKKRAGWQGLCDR
In words: Inhibition of human NEK3 at 18.6 nM by HotSpot assay relative to control.

The target in assay [6] is Mitogen-activated protein kinase kinase kinase 20 (Homo sapiens) (UniProt Q9NYL2). In words: Inhibition of human MLTK at 18.6 nM by HotSpot assay relative to control.
In assay [7] the target is Tyrosine-protein kinase ABL1 (Homo sapiens) (UniProt P00519). In words: Inhibition of human ABL1 at 1.82 nM by HotSpot assay relative to control.
Chain of Tyrosine-protein kinase ABL1 (Homo sapiens) (P00519 whole entry): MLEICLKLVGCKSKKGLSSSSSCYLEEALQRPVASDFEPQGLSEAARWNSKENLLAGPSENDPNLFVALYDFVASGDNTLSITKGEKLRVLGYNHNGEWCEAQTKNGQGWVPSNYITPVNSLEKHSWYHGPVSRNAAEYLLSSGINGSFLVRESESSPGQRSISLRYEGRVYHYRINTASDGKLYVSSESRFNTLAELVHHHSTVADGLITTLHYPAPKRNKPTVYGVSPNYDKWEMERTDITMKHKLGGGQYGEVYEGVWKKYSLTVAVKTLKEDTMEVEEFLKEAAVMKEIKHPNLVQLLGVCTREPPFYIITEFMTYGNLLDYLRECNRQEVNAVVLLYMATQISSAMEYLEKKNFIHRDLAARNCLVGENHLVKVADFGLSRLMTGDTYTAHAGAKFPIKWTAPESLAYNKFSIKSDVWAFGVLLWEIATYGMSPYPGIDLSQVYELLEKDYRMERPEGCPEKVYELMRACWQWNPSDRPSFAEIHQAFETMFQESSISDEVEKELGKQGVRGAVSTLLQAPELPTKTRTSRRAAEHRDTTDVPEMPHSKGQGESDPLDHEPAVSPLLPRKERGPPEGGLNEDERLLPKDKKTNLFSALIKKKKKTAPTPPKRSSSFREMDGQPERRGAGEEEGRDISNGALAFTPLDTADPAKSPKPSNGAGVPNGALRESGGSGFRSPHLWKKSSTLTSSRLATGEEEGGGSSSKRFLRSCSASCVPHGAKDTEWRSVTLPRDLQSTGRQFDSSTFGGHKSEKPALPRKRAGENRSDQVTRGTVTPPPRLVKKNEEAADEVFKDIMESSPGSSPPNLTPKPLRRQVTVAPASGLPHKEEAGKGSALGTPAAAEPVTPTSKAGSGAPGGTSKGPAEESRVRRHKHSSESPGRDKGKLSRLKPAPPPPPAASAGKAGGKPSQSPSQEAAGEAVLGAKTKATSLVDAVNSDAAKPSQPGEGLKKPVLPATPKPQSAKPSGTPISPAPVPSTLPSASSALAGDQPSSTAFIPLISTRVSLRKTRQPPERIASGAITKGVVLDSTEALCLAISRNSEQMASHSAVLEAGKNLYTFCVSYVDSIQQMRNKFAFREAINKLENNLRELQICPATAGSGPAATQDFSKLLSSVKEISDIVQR
In assay [8] the target is Glycogen synthase kinase-3 alpha (Homo sapiens) (UniProt P49840). The assay can be described thus: Inhibition of human GSK3a at 1.82 nM by HotSpot assay relative to control.
Chain of Glycogen synthase kinase-3 alpha (Homo sapiens) (P49840 2-483 limits assumed): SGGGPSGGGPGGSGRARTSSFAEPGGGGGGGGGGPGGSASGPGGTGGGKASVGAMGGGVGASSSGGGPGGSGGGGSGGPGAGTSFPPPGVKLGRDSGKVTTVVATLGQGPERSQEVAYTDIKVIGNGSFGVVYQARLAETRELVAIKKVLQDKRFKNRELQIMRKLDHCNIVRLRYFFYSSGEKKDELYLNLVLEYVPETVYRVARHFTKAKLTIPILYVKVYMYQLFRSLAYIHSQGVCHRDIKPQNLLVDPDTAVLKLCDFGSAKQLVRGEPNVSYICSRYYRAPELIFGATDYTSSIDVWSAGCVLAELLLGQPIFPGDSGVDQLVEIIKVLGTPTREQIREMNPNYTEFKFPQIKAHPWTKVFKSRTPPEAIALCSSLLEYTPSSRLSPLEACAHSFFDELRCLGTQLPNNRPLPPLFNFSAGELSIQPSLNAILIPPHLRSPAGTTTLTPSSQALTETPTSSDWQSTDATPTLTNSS
In assay [9] the target is MAP/microtubule affinity-regulating kinase 3 (Homo sapiens) (UniProt P27448). The assay can be described thus: Inhibition of human MARK3 at 1.82 nM by HotSpot assay relative to control.
Chain of MAP/microtubule affinity-regulating kinase 3 (Homo sapiens) (P27448 whole entry, looked up): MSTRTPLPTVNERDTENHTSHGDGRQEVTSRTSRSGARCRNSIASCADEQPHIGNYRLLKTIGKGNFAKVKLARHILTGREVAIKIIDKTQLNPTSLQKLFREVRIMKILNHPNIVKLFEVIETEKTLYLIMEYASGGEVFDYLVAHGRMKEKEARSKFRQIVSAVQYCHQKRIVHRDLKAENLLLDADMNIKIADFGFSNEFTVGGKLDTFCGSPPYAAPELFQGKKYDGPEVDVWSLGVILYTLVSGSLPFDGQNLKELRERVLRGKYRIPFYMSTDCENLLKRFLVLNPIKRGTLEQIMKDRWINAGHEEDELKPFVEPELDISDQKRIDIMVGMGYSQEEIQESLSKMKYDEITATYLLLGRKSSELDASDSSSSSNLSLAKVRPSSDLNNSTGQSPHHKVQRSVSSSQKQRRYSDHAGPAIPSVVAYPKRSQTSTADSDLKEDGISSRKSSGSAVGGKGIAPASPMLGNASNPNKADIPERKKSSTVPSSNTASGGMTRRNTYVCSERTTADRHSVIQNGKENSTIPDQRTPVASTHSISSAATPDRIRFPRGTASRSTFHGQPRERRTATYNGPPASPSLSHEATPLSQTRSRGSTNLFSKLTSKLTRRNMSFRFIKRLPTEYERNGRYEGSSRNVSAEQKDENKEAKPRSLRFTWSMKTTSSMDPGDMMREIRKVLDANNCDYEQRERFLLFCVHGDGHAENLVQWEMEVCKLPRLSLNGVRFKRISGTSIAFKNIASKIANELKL
Assay [10] deals with Protein kinase C beta type (Homo sapiens) (UniProt P05771). In words: Inhibition of human PKCb2 at 1.82 nM by HotSpot assay relative to control.
Chain of Protein kinase C beta type (Homo sapiens) (P05771 2-671 limits assumed): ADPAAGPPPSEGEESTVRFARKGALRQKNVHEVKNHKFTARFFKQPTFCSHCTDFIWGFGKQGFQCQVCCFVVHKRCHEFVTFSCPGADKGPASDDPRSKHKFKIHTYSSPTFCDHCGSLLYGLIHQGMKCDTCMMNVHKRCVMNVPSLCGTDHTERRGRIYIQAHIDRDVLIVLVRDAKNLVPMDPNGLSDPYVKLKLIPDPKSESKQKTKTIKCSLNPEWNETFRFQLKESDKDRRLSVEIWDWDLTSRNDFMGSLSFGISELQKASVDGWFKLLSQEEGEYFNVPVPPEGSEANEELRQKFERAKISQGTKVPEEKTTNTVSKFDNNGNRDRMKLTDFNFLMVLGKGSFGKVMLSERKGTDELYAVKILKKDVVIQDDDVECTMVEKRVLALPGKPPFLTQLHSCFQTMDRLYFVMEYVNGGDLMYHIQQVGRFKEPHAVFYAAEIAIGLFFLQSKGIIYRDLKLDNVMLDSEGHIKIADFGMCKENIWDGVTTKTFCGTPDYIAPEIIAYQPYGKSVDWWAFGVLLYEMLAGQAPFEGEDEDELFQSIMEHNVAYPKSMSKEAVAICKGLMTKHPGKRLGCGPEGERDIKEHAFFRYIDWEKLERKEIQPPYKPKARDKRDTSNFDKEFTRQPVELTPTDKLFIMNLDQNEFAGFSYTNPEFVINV
Assay [11] has as its target T3, Dual serine/threonine and tyrosine protein kinase (Homo sapiens) (UniProt Q6XUX3).
T3 sequence (whole entry): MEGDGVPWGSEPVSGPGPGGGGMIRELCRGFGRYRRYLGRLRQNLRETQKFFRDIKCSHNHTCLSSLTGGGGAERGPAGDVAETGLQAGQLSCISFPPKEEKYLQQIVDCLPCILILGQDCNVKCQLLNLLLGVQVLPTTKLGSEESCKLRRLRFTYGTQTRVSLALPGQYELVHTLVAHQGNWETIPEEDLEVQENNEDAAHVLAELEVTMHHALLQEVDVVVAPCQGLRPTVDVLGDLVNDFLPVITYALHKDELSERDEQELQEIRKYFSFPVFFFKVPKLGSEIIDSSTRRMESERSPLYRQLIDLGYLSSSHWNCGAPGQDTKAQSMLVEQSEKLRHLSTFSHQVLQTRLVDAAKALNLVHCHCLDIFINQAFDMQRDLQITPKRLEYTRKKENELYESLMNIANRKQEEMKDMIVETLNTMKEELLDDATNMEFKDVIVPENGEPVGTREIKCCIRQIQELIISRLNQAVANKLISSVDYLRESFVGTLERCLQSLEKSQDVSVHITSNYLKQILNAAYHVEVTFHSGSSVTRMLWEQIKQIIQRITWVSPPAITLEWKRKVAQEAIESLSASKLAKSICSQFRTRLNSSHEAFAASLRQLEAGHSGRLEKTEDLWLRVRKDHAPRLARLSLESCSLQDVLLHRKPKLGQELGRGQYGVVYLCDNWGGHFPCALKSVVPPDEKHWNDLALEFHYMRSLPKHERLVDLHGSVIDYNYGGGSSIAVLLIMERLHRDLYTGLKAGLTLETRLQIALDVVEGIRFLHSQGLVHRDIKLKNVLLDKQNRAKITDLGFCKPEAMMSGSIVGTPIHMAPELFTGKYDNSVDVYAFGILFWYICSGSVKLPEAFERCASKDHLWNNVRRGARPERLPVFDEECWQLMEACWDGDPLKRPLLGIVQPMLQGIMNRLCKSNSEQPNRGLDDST
In words: Inhibition of human RIPK5 at 500 nM by HotSpot assay relative to control.

Structures are written as SMILES.

Broadly, the inhibition is the drop in the measured response relative to a control, in per cent. As for `C[C@]1(O)C[C@@H](c2nc(-c3ccc4ccc(-c5ccccc5)nc4c3)c3c(N)nccn32)C1`, the inhibition in assay [1] was -1.49%; in assay [2], -2.4%; in [3], 2.9%; in assay [4] it was 5.25%; in assay [5], 7.82%; in [6] it was -2.34%.

Take `C[C@@]1(C(=O)Nc2ccc(F)nc2)CCCN1c1nc(Nc2cc(C3CC3)n[nH]2)c2cccn2n1`: the inhibition in assay [7] was 3.21%; in [8], 4.1%; in [9] it was 1.57%; in assay [10], -3.58%.

On to `Nc1n[nH]c2nnc(-c3c(-c4ccccc4)nn4ccccc34)cc12`, for which, in assay [11], the inhibition came to 4.06%.
